Columns and labels:
[1] = target: T1, norepinephrine (NE) transport (Rattus norvegicus, UniProt Q63380); assay: Inhibition of [3H]NE uptake in rat hypothalamus synaptosomes; format: biochemical
T1 construct: synaptosomal preparations were made from either whole brain (5-HT), striatum (DA) or hypothalamus (NE); from tissue; host or cells: rat hypothalamus synaptosomes
Procedure: (§1) The effects of arylbicyclo[3.1.0]hexylamines of the invention for inhibiting transport of norepinephrine (NE) and/or dopamine (DA) and/or serotonin (5-HT) were evaluated using preparations of synaptosomes from different regions of the rat brain according to previously-reported techniques.
(§2) Whole brains were obtained from normal rats, and synaptosomal preparations were made from either whole brain (5-HT), striatum (DA) or hypothalamus (NE) by gentle disruption in 10 volumes (w/v) of 0.32 M sucrose (0-4° C.) using a Teflon-glass homogenizer. The homogenate was then centrifuged at 1000×g for 10 min. The supernatant was retained and centrifuged at 23000 g for 20 min. The resulting pellet was gently resuspended in 200 volumes of 0.32 M sucrose (0-4° C.) using a teflon-glass homogenizer. Aliquots (250 μL) of this preparation were added to tubes, along with 0.2 μCi/mL of [^3H]5-HT, [^3H]DA, or [^3H]NE, 200 μL of selected 1-arylbicyclo[3.1.0]hexanamine test compounds (to yield final concentrations of 500 nM) and 1 mL of Krebs-Ringer bicarbonate buffer (pH 7.4). […] At the end of this period, the assay was terminated by rapid filtration over Whatman GF/C glass fiber filters. The filters were rinsed 3 times with 4 ml of Krebs-Ringer bicarbonate buffer (0-4° C.), and the radioactivity retained on the filters was measured by liquid scintillation spectrometry.

dopamine (DA) transport = target: T2, dopamine (DA) transport (Rattus norvegicus, UniProt P23977); assay: biochemical
T2 construct: synaptosomal preparations were made from either whole brain (5-HT), striatum (DA) or hypothalamus (NE); from tissue; host or cells: rat striatum synaptosomes
T2 sequence (P23977 whole entry): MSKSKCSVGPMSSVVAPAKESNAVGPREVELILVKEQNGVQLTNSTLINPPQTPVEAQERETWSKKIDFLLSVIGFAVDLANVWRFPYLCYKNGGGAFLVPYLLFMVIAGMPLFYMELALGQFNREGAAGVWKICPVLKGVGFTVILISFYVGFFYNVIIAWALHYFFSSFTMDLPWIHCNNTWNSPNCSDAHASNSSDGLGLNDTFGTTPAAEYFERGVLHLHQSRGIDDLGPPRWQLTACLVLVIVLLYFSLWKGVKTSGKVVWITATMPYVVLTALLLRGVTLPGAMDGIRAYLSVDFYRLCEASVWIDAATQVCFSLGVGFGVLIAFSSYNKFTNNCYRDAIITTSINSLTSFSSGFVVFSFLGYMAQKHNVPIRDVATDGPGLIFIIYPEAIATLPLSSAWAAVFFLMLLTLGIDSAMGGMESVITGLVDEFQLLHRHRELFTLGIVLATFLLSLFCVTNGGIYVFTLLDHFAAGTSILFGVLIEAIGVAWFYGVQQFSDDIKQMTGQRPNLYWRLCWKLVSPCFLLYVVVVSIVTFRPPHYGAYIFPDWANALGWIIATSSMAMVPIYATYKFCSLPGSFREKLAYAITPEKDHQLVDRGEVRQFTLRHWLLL
Procedure: as §1, §2

[2] = target: T3, serotonin (5-HT) transport (Rattus norvegicus, UniProt P31652); assay: biochemical
T3 construct: synaptosomal preparations were made from either whole brain (5-HT), striatum (DA) or hypothalamus (NE); from tissue; host or cells: rat whole brain synaptosomes
T3 sequence (P31652 whole entry): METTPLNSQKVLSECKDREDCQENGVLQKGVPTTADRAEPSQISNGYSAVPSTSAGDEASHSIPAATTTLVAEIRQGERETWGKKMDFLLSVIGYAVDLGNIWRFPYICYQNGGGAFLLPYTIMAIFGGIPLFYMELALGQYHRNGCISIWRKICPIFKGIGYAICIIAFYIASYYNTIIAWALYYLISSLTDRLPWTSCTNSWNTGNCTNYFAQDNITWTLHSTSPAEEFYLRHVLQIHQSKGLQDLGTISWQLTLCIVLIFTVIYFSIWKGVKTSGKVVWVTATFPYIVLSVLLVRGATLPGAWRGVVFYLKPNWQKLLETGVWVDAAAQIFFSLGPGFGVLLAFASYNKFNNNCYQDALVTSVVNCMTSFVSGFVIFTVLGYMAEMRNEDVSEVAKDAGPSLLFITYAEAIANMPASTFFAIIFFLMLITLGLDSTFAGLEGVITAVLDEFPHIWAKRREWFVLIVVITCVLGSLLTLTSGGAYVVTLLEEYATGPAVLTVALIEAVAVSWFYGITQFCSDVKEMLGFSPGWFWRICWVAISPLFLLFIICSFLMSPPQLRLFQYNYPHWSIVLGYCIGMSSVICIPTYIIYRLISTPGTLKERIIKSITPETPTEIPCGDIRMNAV
Procedure: as §1, §2

T1 sequence (Q63380 1-617): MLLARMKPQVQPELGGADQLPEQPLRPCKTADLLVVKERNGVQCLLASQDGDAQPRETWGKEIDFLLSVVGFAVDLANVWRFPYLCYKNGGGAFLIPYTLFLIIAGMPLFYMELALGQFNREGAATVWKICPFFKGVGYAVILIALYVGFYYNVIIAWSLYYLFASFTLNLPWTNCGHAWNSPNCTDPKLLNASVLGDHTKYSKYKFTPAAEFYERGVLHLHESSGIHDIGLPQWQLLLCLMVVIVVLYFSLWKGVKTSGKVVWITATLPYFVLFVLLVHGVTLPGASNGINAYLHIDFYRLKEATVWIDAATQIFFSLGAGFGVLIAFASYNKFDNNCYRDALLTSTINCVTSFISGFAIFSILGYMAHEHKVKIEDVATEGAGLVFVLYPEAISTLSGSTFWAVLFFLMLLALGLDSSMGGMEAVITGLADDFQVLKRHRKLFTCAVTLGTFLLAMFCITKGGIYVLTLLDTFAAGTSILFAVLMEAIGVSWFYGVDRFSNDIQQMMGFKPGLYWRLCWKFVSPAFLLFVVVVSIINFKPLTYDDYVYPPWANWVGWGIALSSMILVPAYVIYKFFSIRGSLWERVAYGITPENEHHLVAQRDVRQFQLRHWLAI

CNC1CC2CC2(c2cccc3ccccc23)C1 (stereo not drawn)
IC50 [1]: 74 nM | inhibition at 0.5 µM ([1]; 500 nM, 20 min, 37° C.): 81% | IC50 (dopamine (DA) transport): 8730 nM | inhibition at 0.5 µM (dopamine (DA) transport; read-out: Uptake Inhibition % at 500 nM DA): 23% | IC50 [2]: 76 nM | inhibition at 0.5 µM ([2]; read-out: Uptake Inhibition % at 500 nM 5-HT): 82%

— patent publication US8138377B2, “Arylbicyclo[3.1.0]hexylamines and methods and compositions for their preparation and use” (DOV Pharmaceutical, Inc., priority 2007, dated 2012)
